Source: patent publication US20250114345A1, “COMPOUNDS AND COMPOSITIONS AS CBP/P300 DEGRADERS AND USES THEREOF” (Oncopia Therapeutics, Inc. d/b/a/ SK Life Science Labs, priority 2023, published 2025)

Tests used:
p300 = molecular target: T1, p300 (Homo sapiens, UniProt Q09472); test: P300 degradation, HiBit technology in A549 P300 HiBit cells (2 h); type: cell-based; conditions: 2 hrs post treatment; for Dmax: A549, A549 P300 HiBit cells; for DC50: A549 P300 HiBit cells
T1 construct: host or cells: A549 P300 HiBit cells
T1 sequence (Q09472 whole entry): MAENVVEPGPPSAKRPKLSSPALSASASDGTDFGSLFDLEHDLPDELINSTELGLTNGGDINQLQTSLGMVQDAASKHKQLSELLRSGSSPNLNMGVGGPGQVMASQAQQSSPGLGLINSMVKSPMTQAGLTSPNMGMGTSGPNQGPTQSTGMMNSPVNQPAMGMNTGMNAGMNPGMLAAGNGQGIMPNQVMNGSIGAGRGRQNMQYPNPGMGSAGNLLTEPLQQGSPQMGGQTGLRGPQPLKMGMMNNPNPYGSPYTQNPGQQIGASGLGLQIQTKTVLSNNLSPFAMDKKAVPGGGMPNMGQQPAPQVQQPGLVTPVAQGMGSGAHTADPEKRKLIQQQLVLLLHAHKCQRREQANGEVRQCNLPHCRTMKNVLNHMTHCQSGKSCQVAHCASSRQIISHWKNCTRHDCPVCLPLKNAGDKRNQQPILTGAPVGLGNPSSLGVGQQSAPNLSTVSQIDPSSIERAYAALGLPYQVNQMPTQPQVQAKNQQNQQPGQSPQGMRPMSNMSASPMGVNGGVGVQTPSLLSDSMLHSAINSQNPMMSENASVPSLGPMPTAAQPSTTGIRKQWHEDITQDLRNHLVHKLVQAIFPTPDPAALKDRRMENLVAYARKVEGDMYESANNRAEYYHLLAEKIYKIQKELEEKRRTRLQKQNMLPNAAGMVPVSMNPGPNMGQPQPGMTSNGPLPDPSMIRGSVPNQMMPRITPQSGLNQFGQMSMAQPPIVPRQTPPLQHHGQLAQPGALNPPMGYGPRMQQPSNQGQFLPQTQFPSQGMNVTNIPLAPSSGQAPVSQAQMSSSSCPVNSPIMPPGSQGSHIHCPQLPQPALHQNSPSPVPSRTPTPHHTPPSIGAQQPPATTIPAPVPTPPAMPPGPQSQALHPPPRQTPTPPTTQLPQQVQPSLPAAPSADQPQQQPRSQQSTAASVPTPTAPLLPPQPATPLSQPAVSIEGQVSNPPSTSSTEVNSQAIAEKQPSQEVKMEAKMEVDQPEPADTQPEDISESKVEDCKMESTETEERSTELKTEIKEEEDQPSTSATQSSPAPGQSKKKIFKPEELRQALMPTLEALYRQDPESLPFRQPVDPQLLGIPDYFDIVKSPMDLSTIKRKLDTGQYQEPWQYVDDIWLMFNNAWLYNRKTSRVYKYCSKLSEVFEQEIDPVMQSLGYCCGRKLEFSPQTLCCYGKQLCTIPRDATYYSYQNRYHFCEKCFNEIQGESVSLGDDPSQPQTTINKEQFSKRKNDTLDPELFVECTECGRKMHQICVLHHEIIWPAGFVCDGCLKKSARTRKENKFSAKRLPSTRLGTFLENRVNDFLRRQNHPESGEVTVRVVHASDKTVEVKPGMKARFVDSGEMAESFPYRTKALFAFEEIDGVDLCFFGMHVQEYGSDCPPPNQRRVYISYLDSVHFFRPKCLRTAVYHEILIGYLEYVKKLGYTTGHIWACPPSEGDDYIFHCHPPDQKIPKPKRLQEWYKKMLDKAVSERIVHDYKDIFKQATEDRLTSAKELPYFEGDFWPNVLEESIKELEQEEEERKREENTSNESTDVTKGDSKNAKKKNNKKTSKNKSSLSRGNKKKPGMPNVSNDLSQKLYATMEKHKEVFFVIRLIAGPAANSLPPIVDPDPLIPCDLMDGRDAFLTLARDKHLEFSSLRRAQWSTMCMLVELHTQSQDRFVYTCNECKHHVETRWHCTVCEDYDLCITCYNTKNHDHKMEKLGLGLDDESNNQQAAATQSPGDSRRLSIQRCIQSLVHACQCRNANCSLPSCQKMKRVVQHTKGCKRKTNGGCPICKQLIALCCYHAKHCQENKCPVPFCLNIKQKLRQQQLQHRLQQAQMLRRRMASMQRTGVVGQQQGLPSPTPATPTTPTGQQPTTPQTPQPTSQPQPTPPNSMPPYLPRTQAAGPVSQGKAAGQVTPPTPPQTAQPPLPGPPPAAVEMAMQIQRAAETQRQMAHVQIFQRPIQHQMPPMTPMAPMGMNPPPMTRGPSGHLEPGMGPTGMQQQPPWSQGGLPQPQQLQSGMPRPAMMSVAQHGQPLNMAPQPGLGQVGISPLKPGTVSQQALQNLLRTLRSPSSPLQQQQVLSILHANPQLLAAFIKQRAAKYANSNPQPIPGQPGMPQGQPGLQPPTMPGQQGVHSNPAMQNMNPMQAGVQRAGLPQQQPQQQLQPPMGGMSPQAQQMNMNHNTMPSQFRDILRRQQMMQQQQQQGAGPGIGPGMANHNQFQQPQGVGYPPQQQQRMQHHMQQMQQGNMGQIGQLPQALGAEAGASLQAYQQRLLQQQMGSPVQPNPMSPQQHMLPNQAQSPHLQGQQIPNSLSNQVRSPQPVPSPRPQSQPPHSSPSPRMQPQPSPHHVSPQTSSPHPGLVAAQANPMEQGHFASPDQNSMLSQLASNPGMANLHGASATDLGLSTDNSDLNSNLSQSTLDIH
How it was run: (§1)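 Luminescence after lytic HiBiT detection (10 min, room temperature) gave degradation potency and Dmax. Before that, knock-in A549 cells grown overnight in F-12K/10% HI-FBS were exposed to serially diluted compound at 37 °C, 5% CO2 for the assay time stated.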

CBP = molecular target: T2, CBP (Homo sapiens, UniProt Q92793); test: CBP degradation, HiBit technology in A549 CBP HiBit cells (24 h); type: cell-based; conditions: 24 hrs post treatment
T2 construct: host or cells: A549 CBP HiBit cells
T2 sequence (Q92793 whole entry): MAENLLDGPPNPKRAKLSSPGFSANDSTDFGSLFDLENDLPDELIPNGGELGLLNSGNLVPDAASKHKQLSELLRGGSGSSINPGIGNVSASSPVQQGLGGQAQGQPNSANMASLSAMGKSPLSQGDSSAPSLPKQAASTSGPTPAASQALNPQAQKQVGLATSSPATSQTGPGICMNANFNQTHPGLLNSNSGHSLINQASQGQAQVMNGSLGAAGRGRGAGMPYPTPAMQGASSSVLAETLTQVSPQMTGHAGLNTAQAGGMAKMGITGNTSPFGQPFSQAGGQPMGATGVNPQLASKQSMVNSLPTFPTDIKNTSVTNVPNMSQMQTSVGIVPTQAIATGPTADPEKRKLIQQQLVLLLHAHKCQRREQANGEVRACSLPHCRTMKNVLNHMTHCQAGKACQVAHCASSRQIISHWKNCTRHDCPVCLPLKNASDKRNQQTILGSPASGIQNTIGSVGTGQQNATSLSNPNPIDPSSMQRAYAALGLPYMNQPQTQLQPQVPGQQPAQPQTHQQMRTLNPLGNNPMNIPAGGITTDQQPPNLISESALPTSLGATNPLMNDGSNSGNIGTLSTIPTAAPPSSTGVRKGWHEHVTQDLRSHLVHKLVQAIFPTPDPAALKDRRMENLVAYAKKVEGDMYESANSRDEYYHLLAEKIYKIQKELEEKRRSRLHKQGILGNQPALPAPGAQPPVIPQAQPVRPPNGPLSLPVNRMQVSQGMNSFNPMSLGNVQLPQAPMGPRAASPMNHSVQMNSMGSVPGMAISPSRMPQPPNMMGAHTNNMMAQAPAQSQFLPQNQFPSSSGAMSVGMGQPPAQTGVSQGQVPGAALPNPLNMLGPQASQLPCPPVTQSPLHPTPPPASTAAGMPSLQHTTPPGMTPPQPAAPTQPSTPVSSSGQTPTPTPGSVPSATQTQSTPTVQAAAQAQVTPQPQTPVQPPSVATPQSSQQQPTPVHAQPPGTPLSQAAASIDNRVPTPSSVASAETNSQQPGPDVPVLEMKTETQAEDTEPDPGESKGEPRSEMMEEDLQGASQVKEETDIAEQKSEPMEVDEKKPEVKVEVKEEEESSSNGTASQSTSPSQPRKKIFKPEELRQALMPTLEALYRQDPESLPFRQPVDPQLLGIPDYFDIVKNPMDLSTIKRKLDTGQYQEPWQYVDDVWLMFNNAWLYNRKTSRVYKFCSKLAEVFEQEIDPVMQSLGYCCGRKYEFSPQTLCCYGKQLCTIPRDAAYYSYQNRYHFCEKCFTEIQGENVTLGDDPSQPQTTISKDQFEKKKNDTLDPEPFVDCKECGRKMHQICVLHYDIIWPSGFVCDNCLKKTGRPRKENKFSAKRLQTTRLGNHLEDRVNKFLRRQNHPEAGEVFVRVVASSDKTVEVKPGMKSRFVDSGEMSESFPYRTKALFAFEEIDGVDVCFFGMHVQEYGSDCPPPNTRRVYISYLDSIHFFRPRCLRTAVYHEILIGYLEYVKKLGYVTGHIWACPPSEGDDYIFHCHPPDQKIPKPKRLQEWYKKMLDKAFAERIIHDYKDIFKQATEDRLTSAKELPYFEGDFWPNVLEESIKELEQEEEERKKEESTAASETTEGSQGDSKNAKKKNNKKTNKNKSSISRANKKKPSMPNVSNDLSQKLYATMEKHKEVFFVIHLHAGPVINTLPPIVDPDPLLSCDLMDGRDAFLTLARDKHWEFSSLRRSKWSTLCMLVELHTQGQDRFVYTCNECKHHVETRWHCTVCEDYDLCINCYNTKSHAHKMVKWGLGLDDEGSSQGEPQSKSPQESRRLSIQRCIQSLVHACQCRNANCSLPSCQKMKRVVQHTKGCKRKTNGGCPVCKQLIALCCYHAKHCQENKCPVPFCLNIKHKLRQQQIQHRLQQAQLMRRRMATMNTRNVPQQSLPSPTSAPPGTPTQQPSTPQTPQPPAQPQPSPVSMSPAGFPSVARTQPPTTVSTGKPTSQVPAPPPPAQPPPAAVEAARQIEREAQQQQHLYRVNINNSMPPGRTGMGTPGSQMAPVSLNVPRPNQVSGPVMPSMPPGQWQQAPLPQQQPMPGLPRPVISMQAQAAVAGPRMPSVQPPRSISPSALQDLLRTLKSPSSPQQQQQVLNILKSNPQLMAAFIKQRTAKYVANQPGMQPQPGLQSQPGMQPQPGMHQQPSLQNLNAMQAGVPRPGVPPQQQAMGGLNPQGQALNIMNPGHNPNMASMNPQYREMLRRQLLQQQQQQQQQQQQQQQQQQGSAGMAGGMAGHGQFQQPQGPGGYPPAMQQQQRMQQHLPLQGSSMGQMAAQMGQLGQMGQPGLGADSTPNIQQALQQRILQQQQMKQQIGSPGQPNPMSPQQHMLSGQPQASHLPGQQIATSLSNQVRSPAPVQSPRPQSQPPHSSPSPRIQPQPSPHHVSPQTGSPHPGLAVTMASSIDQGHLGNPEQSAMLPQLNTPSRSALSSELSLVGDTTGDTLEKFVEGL
How it was run: as §1

| Structure (SMILES) | Dmax (p300) [%] | DC50 (p300) [nM] | DC50 (CBP) [nM] | Dmax (CBP) [%] |
| --- | --- | --- | --- | --- |
| Cc1cc2c(N3CCOc4nc(-c5ccc(C(=O)NCC#Cc6cc7c(C8CCC(=O)NC8=O)cccc7o6)nc5)ncc43)cc(C3CCOCC3)cc2n(C)c1=O (stereo not drawn) [Example B96, 5-(5-(1,3-dimethyl-2-oxo-7-(tetrahydro-2H-pyran-4-yl)-1,2-dihydroquinolin-5-yl)-6,7-dihydro-5H-pyrimido[4,5-b][1,4]oxazin-2-yl)-N-(3-(4-(2,6-dioxopiperidin-3-yl)benzofuran-2-yl)prop-2-yn-1-yl)picolinamide] | > 80 | 1 to 9.9 | 100 to 999 | < 20 |
| Cc1cc2c(-c3cccc4cc(-c5ccc(C(=O)NCC#Cc6ccc7occ(C8CCC(=O)NC8=O)c7c6)nc5)ncc34)nc(C(C)C)cc2n(C)c1=O (stereo not drawn) [Example B102, N-(3-(3-(2,6-dioxopiperidin-3-yl)benzofuran-5-yl)prop-2-yn-1-yl)-5-(8-(7-isopropyl-1,3-dimethyl-2-oxo-1,2-dihydro-1,6-naphthyridin-5-yl)isoquinolin-3-yl)picolinamide] | > 80 | 1 to 9.9 | > 1000 | < 20 |
| Cc1cc(-c2ncc3c(n2)CCCN3c2cc(C3CCOCC3)nc3c2cc(C)c(=O)n3C)cnc1C(=O)NCC#Cc1cc2c(C3CCC(=O)NC3=O)cccc2o1 (stereo not drawn) [Example B103, 5-(5-(6,8-dimethyl-7-oxo-2-(tetrahydro-2H-pyran-4-yl)-7,8-dihydro-1,8-naphthyridin-4-yl)-5,6,7,8-tetrahydropyrido[3,2-d]pyrimidin-2-yl)-N-(3-(4-(2,6-dioxopiperidin-3-yl)benzofuran-2-yl)prop-2-yn-1-yl)-3-methylpicolinamide] | > 80 | 1 to 9.9 | 100 to 999 | < 20 |
| Cc1cc2c(N3CCCc4nc(-c5ccc(C(=O)NCC#Cc6cc7c(C8CCC(=O)NC8=O)nccc7o6)nc5)ncc43)cccc2n(C)c1=O (stereo not drawn) [Example B106, 5-(5-(1,3-dimethyl-2-oxo-1,2-dihydroquinolin-5-yl)-5,6,7,8-tetrahydropyrido[3,2-d]pyrimidin-2-yl)-N-(3-(4-(2,6-dioxopiperidin-3-yl)furo [3,2-c]pyridin-2-yl)prop-2-yn-1-yl) picolinamide] | > 80 | < 1 | 100 to 999 | < 20 |
| Cc1cc2c(N3CCCc4nc(-c5ccc(C(=O)NCC#Cc6ccc7occ(C89CC(C8)C(=O)NC9=O)c7c6)nc5)ncc43)cc(C3CCOCC3)cc2n(C)c1=O [Example B107, 5-(5-(1,3-dimethyl-2-oxo-7-(tetrahydro-2H-pyran-4-yl)-1,2-dihydroquinolin-5-yl)-5,6,7,8-tetrahydropyrido[3,2-d]pyrimidin-2-yl)-N-(3-(3-(2,4-dioxo-3-azabicyclo[3.1.1]heptan-1-yl)benzofuran-5-yl)prop-2-yn-1-yl) picolinamide] | 60 to 79 | 1 to 9.9 | > 1000 | < 20 |
| Cc1cc2c(N3CCCc4nc(-c5ccc(C(=O)NCC#Cc6ccc7onc(C8CCC(=O)NC8=O)c7c6)nc5)ncc43)cc(C3CCOCC3)cc2n(C)c1=O (stereo not drawn) [Example B108, 5-(5-(1,3-dimethyl-2-oxo-7-(tetrahydro-2H-pyran-4-yl)-1,2-dihydroquinolin-5-yl)-5,6,7,8-tetrahydropyrido[3,2-d]pyrimidin-2-yl)-N-(3-(3-(2,6-dioxopiperidin-3-yl)benzo[d]isoxazol-5-yl)prop-2-yn-1-yl)picolinamide] | > 80 | < 1 | 100 to 999 | < 20 |
| Cc1cc2c(N3CCCc4nc(-c5ccc(C(=O)NCC#Cc6ccc7occ(C8CCC(=O)NC8=O)c7c6)nc5)ncc43)cccc2n(C)c1=O (stereo not drawn) [Example B110, 5-(5-(1,3-dimethyl-2-oxo-1,2-dihydroquinolin-5-yl)-5,6,7,8-tetrahydropyrido[3,2-d]pyrimidin-2-yl)-N-(3-(3-(2,6-dioxopiperidin-3-yl)benzofuran-5-yl)prop-2-yn-1-yl)picolinamide] | > 80 | 1 to 9.9 | > 1000 | < 20 |
| CN1Cc2c(-c3cccc4cc(-c5ccc(C(=O)NCC#Cc6ccc7cnn(C8CCC(=O)NC8=O)c7c6)nc5)ncc34)cc(C(C)(F)F)cc2N(C)C1=O (stereo not drawn) [Example B111, 5-(8-(7-(1,1-difluoroethyl)-1,3-dimethyl-2-oxo-1,2,3,4-tetrahydroquinazolin-5-yl)isoquinolin-3-yl)-N-(3-(1-(2,6-dioxopiperidin-3-yl)-1H-indazol-6-yl)prop-2-yn-1-yl)picolinamide] | – | 1 to 9.9 | 10 to 99 | – |
| COc1cc(N2CCOc3cc(-c4ccc(C(=O)NCC#Cc5ccc6occ(C7CCC(=O)NC7=O)c6c5)nc4)ncc32)c2cc(C)c(=O)n(C)c2c1 (stereo not drawn) [Example B112, N-(3-(3-(2,6-dioxopiperidin-3-yl)benzofuran-5-yl)prop-2-yn-1-yl)-5-(4-(7-methoxy-1,3-dimethyl-2-oxo-1,2-dihydroquinolin-5-yl)-3,4-dihydro-2H-pyrido[4,3-b][1,4]oxazin-7-yl) picolinamide] | > 80 | < 1 | 100 to 999 | < 20 |
| Cc1cc2c(N3CCCc4nc(-c5ccc(C(=O)NCC#Cc6ccc7occ(C8CCC(=O)NC8=O)c7c6)nc5)ncc43)nc(N3CC4CCC(C3)O4)cc2n(C)c1=O (stereo not drawn) [Example B115, 5-(5-(7-(8-oxa-3-azabicyclo[3.2.1]octan-3-yl)-1,3-dimethyl-2-oxo-1,2-dihydro-1,6-naphthyridin-5-yl)-5,6,7,8-tetrahydropyrido [3,2-d]pyrimidin-2-yl)-N-(3-(3-(2,6-dioxopiperidin-3-yl)benzofuran-5-yl)prop-2-yn-1-yl)picolinamide] | 60 to 79 | 1 to 9.9 | > 1000 | < 20 |
| [2H]C([2H])(C#Cc1ccc2occ(C3CCC(=O)NC3=O)c2c1)NC(=O)c1ccc(-c2ncc3c(n2)CCCN3c2cc(C3CCOCC3)cc3c2cc(C)c(=O)n3C)cn1 (stereo not drawn) [Example B117, 5-(5-(1,3-dimethyl-2-oxo-7-(tetrahydro-2H-pyran-4-yl)-1,2-dihydroquinolin-5-yl)-5,6,7,8-tetrahydropyrido[3,2-d]pyrimidin-2-yl)-N-(3-(3-(2,6-dioxopiperidin-3-yl)benzofuran-5-yl)prop-2-yn-1-yl-1,1-d2)picolinamide] | > 80 | 1 to 9.9 | 100 to 999 | < 20 |
| Cc1cc2c(N3CCCc4nc(-c5ccc(C(=O)NCC#Cc6ccc7occ(C8CCC(=O)NC8=O)c7c6)nc5)ncc43)cc(Cl)cc2n(C)c1=O (stereo not drawn) [Example B119, 5-(5-(7-chloro-1,3-dimethyl-2-oxo-1,2-dihydroquinolin-5-yl)-5,6,7,8-tetrahydro[3,2-d]pyrimidin-2-yl)-N-(3-(3-(2,6-dioxopiperidin-3-yl)benzofuran-5-yl)prop-2-yn-1-yl) picolinamide] | 60 to 79 | 1 to 9.9 | > 1000 | < 20 |
| Cc1cc2c(N3CCOc4cc(-c5ccc(C(=O)NCC#Cc6ccc7occ(C8CCC(=O)NC8=O)c7c6)nc5)ncc43)cc(F)cc2n(C)c1=O (stereo not drawn) [Example B123, N-(3-(3-(2,6-dioxopiperidin-3-yl)benzofuran-5-yl)prop-2-yn-1-yl)-5-(4-(7-fluoro-1,3-dimethyl-2-oxo-1,2-dihydroquinolin-5-yl)-3,4-dihydro-2H-pyrido[4,3-b][1,4]oxazin-7-yl)picolinamide] | > 80 | 1 to 9.9 | > 1000 | < 20 |
| Cc1cc2c(N3CCN(C)c4nc(-c5ccc(C(=O)NCC#Cc6ccc7occ(C8CCC(=O)NC8=O)c7c6)nc5)ncc43)cc(C3CCOCC3)cc2n(C)c1=O (stereo not drawn) [Example B124, 5-(5-(1,3-dimethyl-2-oxo-7-(tetrahydro-2H-pyran-4-yl)-1,2-dihydroquinolin-5-yl)-8-methyl-5,6,7,8-tetrahydropteridin-2-yl)-N-(3-(3-(2,6-dioxopiperidin-3-yl)benzofuran-5-yl)prop-2-yn-1-yl)picolinamide] | > 80 | < 1 | 1 to 9.9 | 40 to 59 |
| Cc1cc2c(N3CCCc4nc(-c5ccc(C(=O)NCC#Cc6ccc7occ(C8CCC(=O)NC8=O)c7c6)nc5)ccc43)cc(C3CCOCC3)cc2n(C)c1=O (stereo not drawn) [Example B127, 5-(5-(1,3-dimethyl-2-oxo-7-(tetrahydro-2H-pyran-4-yl)-1,2-dihydroquinolin-5-yl)-5,6,7,8-tetrahydro-1,5-naphthyridin-2-yl)-N-(3-(3-(2,6-dioxopiperidin-3-yl)benzofuran-5-yl)prop-2-yn-1-yl)picolinamide] | > 80 | 1 to 9.9 | > 1000 | < 20 |
| Cc1cc2c(-c3cn(C)c(=O)c4cc(-c5ccc(C(=O)NCC#Cc6cc7c(C8CCC(=O)NC8=O)cccc7o6)nc5)ncc34)nc(N3CCOCC3)cc2n(C)c1=O (stereo not drawn) [Example B131, 5-(8-(1,3-dimethyl-7-morpholino-2-oxo-1,2-dihydro-1,6-naphthyridin-5-yl)-6-methyl-5-oxo-5,6-dihydro-2,6-naphthyridin-3-yl)-N-(3-(4-(2,6-dioxopiperidin-3-yl)benzofuran-2-yl)prop-2-yn-1-yl)picolinamide] | > 80 | 1 to 9.9 | > 1000 | < 20 |
| Cc1cc2c(-c3cccc4cc(-c5ccc(C(=O)NCC#Cc6ccc7occ(C8CCC(=O)NC8=O)c7c6)nc5)ncc34)nc(C3CCOCC3)cc2n(C)c1=O (stereo not drawn) [Example B132, 5-(8-(1,3-dimethyl-2-oxo-7-(tetrahydro-2H-pyran-4-yl)-1,2-dihydro-1,6-naphthyridin-5-yl)isoquinolin-3-yl)-N-(3-(3-(2,6-dioxo-piperidin-3-yl)benzofuran-5-yl)prop-2-yn-1-yl)picolinamide] | > 80 | 1 to 9.9 | > 1000 | < 20 |
